In brackets after ≈: the same amount, converted by molar mass. Values belong to the compound of their own block, whether it stands above or below them. Activity calls are given as the source filed them. No cut-off for these calls is given here.
Legend:
Homo sapiens [1] = organism: Homo sapiens; assay: Induction of phytohemagglutininin-activated HMNC proliferation assessed as [3H]thymidine uptake at 10 ug/mL after 3 days by lymphoproliferation test relative to control; format: functional
Homo sapiens [2] = organism: Homo sapiens; assay: Induction of resting HMNC proliferation assessed as [3H]thymidine uptake at 10 ug/mL after 3 days by lymphoproliferation test relative to control; format: functional
Homo sapiens [3] = organism: Homo sapiens; assay: Immunomodulatory activity in resting HMNC assessed as IFN-gamma production at 10 ug/mL after 3 days by EIA realtive to control; format: functional
Homo sapiens [4] = organism: Homo sapiens; assay: (§1) Immunomodulatory activity in resting HMNC assessed as IFN-gamma production after 3 days by EIA; format: functional
[5] = as §1; format: functional, Homo sapiens
Homo sapiens [6] = organism: Homo sapiens; assay: (§2) Immunomodulatory activity in phytochemagglutininin-stimulatedHMNC assessed as IFN-gamma production after 3 days by EIA; format: functional
[7] = as §2; format: functional, Homo sapiens
[8] = Induction of resting HMNC proliferation assessed as [3H]thymidine uptake after 3 days by lymphoproliferation test; format: functional, Homo sapiens
[9] = Induction of phytohemagglutininin-activated HMNC proliferation assessed as [3H]thymidine uptake after 3 days by lymphoproliferation test; format: functional, Homo sapiens
Homo sapiens [10] = organism: Homo sapiens; assay: Immunomodulatory activity in phytochemagglutininin-stimulatedHMNC assessed as IFN-gamma production at 10 ug/mL after 3 days by EIA realtive to control; format: functional

SMILES: O=C(/C=C/c1ccc(O)c(O)c1)O[C@@H]1[C@@H](OC(=O)/C=C/c2ccc(O)c(O)c2)C[C@@](O)(C(=O)O)C[C@@H]1O
Activity (Homo sapiens [1]): inactive
Activity (Homo sapiens [2]): inactive

EC50 [5]: 1.25 µg/mL (≈ 2.42 µM)
EC50 [7]: 5 µg/mL (≈ 9.68 µM)
SMILES: O=C(/C=C/c1ccc(O)c(O)c1)O[C@H]1[C@@H](OC(=O)/C=C/c2ccc(O)c(O)c2)C[C@](O)(C(=O)O)C[C@@H]1O
Activity (Homo sapiens [1]): 78.4%
Activity (Homo sapiens [3]): 30.5 pg/mL
Activity (Homo sapiens [4]): Dose-dependent effect
Activity (Homo sapiens [6]): Dose-dependent effect
EC50 [8]: 4.4 µg/mL (≈ 8.52 µM)
EC50 [9]: 8.1 µg/mL (≈ 15.7 µM)
Activity (Homo sapiens [10]): Active
Activity (Homo sapiens [2]): 726 cpm

SMILES: O=C(O)/C=C/c1ccc(O)c(O)c1
Activity (Homo sapiens [1]): inactive
Activity (Homo sapiens [3]): inactive
Activity (Homo sapiens [10]): inactive
Activity (Homo sapiens [2]): inactive

SMILES: C[C@@H]1O[C@@H](OC[C@H]2O[C@@H](Oc3c(-c4ccc(O)c(O)c4)oc4cc(O)cc(O)c4c3=O)[C@H](O)[C@@H](O)[C@@H]2O)[C@H](O)[C@H](O)[C@H]1O
Activity (Homo sapiens [1]): inactive
Activity (Homo sapiens [2]): inactive

SMILES: O=C(/C=C/c1ccc(O)c(O)c1)O[C@@H]1C[C@](O)(C(=O)O)C[C@@H](OC(=O)/C=C/c2ccc(O)c(O)c2)[C@H]1O
Activity (Homo sapiens [1]): inactive
Activity (Homo sapiens [2]): inactive

EC50 [5]: 3.9 µg/mL (≈ 11 µM)
EC50 [7]: 2.8 µg/mL (≈ 7.9 µM)
SMILES: O=C(/C=C/c1ccc(O)c(O)c1)O[C@@H]1C[C@](O)(C(=O)O)C[C@@H](O)[C@H]1O [CHLOROGENIC ACID]
Activity (Homo sapiens [1]): 97.9%
Activity (Homo sapiens [3]): 38.5 pg/mL
Activity (Homo sapiens [4]): Dose-dependent effect
Activity (Homo sapiens [6]): Dose-dependent effect
EC50 [8]: 1.54 µg/mL (≈ 4.35 µM)
EC50 [9]: 4.9 µg/mL (≈ 13.8 µM)
Activity (Homo sapiens [10]): Active
Activity (Homo sapiens [2]): 910 cpm

SMILES: COC(=O)[C@]1(O)C[C@H](OC(=O)/C=C/c2ccc(O)c(O)c2)[C@@H](O)[C@@H](OC(=O)/C=C/c2ccc(O)c(O)c2)C1
Activity (Homo sapiens [1]): inactive
Activity (Homo sapiens [2]): inactive

SMILES: CCOC(=O)[C@]1(O)C[C@H](OC(=O)/C=C/c2ccc(O)c(O)c2)[C@@H](OC(=O)/C=C/c2ccc(O)c(O)c2)[C@@H](O)C1
Activity (Homo sapiens [1]): inactive
Activity (Homo sapiens [2]): inactive

From ChEMBL document CHEMBL1157280, “Immunomodulatory principles of Dichrocephala bicolor” (J Nat Prod, 1999)
